Reference: ChEMBL document CHEMBL2157908, “Formylated polyamines as peptidomimetics” (Bioorg Med Chem Lett, 2012)
pIC50, pKi: −log10 of the molar value. Activity calls are given as the source filed them. The rule behind the calls is not given here.

How the values were obtained:
[1] = Half life in human serum; type: ADME, cell-free
[2] = biological target: T1, Mu-type opioid receptor (Homo sapiens, UniProt P35372); assay: Agonist activity at human recombinant mu-opioid receptor expressed in CHO cells after 60 mins by [35S]GTPgammaS binding assay; type: functional, cell-based
[3] = biological target: T1, Mu-type opioid receptor; assay: Displacement of [3H]DAMGO from human recombinant mu-opioid receptor expressed in CHO cells after 60 mins by liquid scintillation assay; type: cell-based

T1 sequence (P35372 whole entry): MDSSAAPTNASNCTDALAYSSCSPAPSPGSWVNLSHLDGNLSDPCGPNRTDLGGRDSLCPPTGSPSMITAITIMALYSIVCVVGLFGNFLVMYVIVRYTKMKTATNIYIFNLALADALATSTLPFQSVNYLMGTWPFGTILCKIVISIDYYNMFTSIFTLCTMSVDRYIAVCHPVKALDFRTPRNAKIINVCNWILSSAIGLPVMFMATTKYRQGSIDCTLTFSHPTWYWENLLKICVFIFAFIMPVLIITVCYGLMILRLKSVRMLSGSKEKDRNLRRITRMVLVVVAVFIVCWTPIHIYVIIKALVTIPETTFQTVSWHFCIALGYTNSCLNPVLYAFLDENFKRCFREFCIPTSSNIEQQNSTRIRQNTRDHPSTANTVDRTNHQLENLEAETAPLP

half-life [1]: 41 h
Activity [2]: inactive
pIC50 [3]: 5.49
pKi [3]: 6.40
Structure (SMILES): CC(C)C[C@H](CN(C=O)[C@H](Cc1ccccc1)CN(C=O)CCN(C=O)CCN(C=O)[C@@H](CN)Cc1ccc(O)cc1)NS(C)(=O)=O
